Measured values reported in US20230038360A1, “COMPOSITION FOR THE TREATMENT OF AMYLOID-BETA ASSOCIATED DISEASES” (BASF SE, priority 2019, published 2023).

Tested on: C. elegans strain CL4176 expressing amyloid-beta peptide in muscle cells
Assay: Paralysis assay in transgenic C. elegans strain CL4176 expressing human Aβ1-42 peptide in muscle cells
Type: in vivo
Conditions: 1 mg/ml sodium propionate in nematode growth medium; after 24 hours; Aβ1-42 expression induced by temperature control
From the text: The biological model C. elegans was used to study the effects of sodium propionate on amyloid-beta associated pathology. C. elegans has become an excellent and well recognized model for studying neurodegenerative diseases (Zhou et al., 2011; Hekimi et al., 2011; Kaletsky & Murphy, 2010). This nematode contains 302 neuron cells with neurotransmitters and neuropeptides similar to the mammalian nervous system. All the basic functions in the worm such as development, feeding and movement are controlled by the nervous system. The model is particularly useful for studying amyloid-beta associated pathologies, since transgenic strains have been generated able to express the human Aβ1-42 peptide in muscle cells, producing a progressive paralysis in the nematodes as a result of toxic effects (Link, 1995). Therefore, this model using such strains is useful to study substances in view of their ability to reduce β-amyloid peptide cell toxicity.
In the present experiment, the transgenic C. elegans strain CL4176 expressing amyloid-beta peptide in muscle cells was used. The worms were cultured in plates with nematode growth medium (control) or in plates supplemented with different concentrations of sodium propionate (test substance). The expression of Aβ1-42 peptide was induced in the nematodes by temperature control, and the percentage of worms paralyzed was determined at different time points. […]

With CCC(=O)[O-].[Na+] [sodium propionate] the “number of paralyzed C. elegans compared to the untreated Aβ1-42 peptide expressing C. elegans” value was “significantly lower”.
